The values that follow come from US8282944B2, “Metal complexes incorporated within biodegradable nanoparticles and their use” (The University of Akron, priority 2007, dated 2012).

One data set has as its system rat models. Kind of data set: Toxicity in rat models via IV tail injection. In kind it is in vivo. The source says: In one embodiment, the R group is an alcohol. Suitable alcohols include ethanol and propanol. For formula 26, n has a value between 1 and 200.
Data set [1] concerns ovarian cancer cell line NuTu-19. Kind of data set: MTT test against ovarian cancer cell line NuTu-19. The format is cell-based. On the procedure:
In one example, a silver(I) complex as represented in formula 23 has been tested for preliminary anticancer activity against the ovarian cancer cell line NuTu-19. Silver complex 23 was chosen because of its overall stability.
Cells were plated at 5000 cells per well in a 96-well plate. All tests were run in triplicate. Cells were allowed to incubate overnight after plating followed by the addition of a 50 μM solution of 23, cisplatin, and thiaether-RhCl3 dissolved in complete cell media. The cells were then incubated for 72 h followed by the addition of MTT dissolved in phosphate buffered saline (PBS) and incubated for another 4 h. A sodium dodecyl sulfate: 0.01M HCl (SDS) solution was then added and the cells were incubated overnight. The SDS solution is added to solubilize the blue formazan crystals that are formed by the reduction of MTT by living cells. The absorbance is then read on a microplate reader. Therefore, the higher the absorbance the more living cells present in cell colony.
On the technique in general: Tetrazolium dyes change colour on reduction, which living cells bring about.

Another data set deals with A375 melanoma. Put plainly: Anti-proliferative effects on A375 melanoma at 96 hours of growth. In kind it is cell-based. To be noted: 0.5-25 μm, FIGS. 2 and 3. On the procedure:
The anti-proliferative effects of formula 23, cisplatin and carboplatin were investigated on A375 melanoma at 96 hours of growth and are shown in FIGS. 2 and 3. Percent control growth and percent standard error of the means (SEM) were conducted at various concentrations including 0.5 μm, 1.0 μm, 2.5 μm, 5.0 μm, 10 μm, 15 μm, 20 μm and […].

The next data set has as its system ACHN renal carcinoma. Kind of data set: Anti-proliferative effects on ACHN renal carcinoma at 96 hours of growth. To be noted: 0.5-25 μm, FIGS. 4 and 5. The format is cell-based. On the procedure:
The anti-proliferative effects of formula 23, cisplatin and carboplatin were investigated on ACHN renal carcinoma at 96 hours of growth and are shown in FIGS. 4 and 5. Percent control growth and percent standard error of the means (SEM) were conducted at various concentrations including 0.5 μm, 1.0 μm, 2.5 μm, 5.0 μm, 10 μm, 15 μm, 20 μm and 25 μm.

For a further data set, the system named is HT1376 colon carcinoma. Kind of data set: Anti-proliferative effects on HT1376 colon carcinoma at 96 hours of growth. In kind it is cell-based. Particulars: 0.5-25 μm, FIGS. 6 and 7. The method, then:
The anti-proliferative effects of formula 23, cisplatin and carboplatin were investigated on HT1376 colon carcinoma at 96 hours of growth and are shown in FIGS. 6 and 7. Percent control growth and percent standard error of the means (SEM) were conducted at various concentrations including 0.5 μm, 1.0 μm, 2.5 μm, 5.0 μm, 10 μm, 15 μm, 20 μm and 25 μm.

`OC1(O)CN2C=CN3Cc4cccc(n4)CN4C=CN(C1)[CH]4[Ag][CH]1N4C=CN1CC(O)(O)CN1C=CN(Cc5cccc(n5)C4)[CH]1[Ag][CH]32` [formula 24]: the toxicity entry in the data set with rat models is “severe toxicity”.

Consider `CC(=O)[O][Ag][CH]1N(C)C(Cl)=C(Cl)N1C` [formula 23], for which the “cell kill (MTT absorbance, FIG. 1)” value in data set [1] (NuTu-19, 50 μM, after 72 h of incubation) is recorded as “kills all cells”. The anticancer activity result in data set [1] (NuTu-19, tested for a period of 72 hours, preliminary) was “shown anticancer activity”. The “percent control growth compared to cisplatin and carboplatin” value in the data set on A375 melanoma is reported as “best control growth”. In addition, in the data set with ACHN renal carcinoma, the “percent control growth compared to carboplatin” value was “comparable control growth” and the “percent control growth compared to cisplatin” value is “better control growth”. Moreover, in the data set with HT1376 colon carcinoma, the “percent control growth compared to carboplatin and cisplatin” value is “comparable control growth”.
